Measured values as given in patent publication US8039474B2, “2,3,4,9-tetrahydro-1H-carbazole derivatives as CRTH2 receptor antagonists” (Actelion Pharmaceutical Ltd., priority 2004, dated 2011).

Molecular target: T1, hCRTH2 receptor (Homo sapiens, UniProt Q9Y5Y4)
T1 construct: expressed in transfected cells
T1 sequence (Q9Y5Y4 1-395): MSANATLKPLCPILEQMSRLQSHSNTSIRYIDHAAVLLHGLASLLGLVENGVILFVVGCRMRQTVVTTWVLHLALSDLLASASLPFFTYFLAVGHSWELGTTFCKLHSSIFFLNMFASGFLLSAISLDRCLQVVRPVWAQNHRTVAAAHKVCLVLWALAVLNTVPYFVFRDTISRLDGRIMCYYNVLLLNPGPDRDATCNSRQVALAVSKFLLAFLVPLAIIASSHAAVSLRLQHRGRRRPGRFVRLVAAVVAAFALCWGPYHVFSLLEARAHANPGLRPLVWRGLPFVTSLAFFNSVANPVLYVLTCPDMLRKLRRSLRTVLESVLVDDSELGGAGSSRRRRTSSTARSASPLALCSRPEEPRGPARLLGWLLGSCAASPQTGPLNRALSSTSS
Assay: CRTH2 membranes radioligand binding assay ({3H}-PGD2)
Conditions: {3H}-PGD2 2.5 nM; membranes of HEK 293 cells expressing recombinant hCRTH2; read-out: hCRTH2 BDG IC50
Protocol: Cells are detached from culture plates in 5 ml buffer A (5 mM Tris, 1 mM MgCl2×6 H2O, 0.1 mM PMSF, 0.1 mM phenanthroline) per plate using a police rubber and transferred into centrifugation tubes and frozen at −80° C. After thawing, the cells are centrifuged at 500 g for 5 min and then resuspended in buffer A. Cells are then fragmented by homogenization with a Polytron homogenizer for 30 s. The membrane fragments are centrifuged at 3000 g for 40 min and resuspended in membranes in buffer B (50 mM Tris, 25 mM MgCl2, 250 mM saccharose, pH 7.4) and aliquots are stored frozen.
Binding assay is performed in a total volume of 250 μl. […] For unspecific binding, PGD2 is added to the reaction mixture at 1 μM final concentration. This binding assay mix is incubated at rt for 90 min and then filtered through a GF/C filter plate. The filter is washed three times with ice cold binding buffer. Then, 40 μl per well Microscint-40 (Packard) are added and the bound radioactivity is quantified by means of Topcount (Packard).

SMILES | IC50
CC(C)N(Cc1ccccc1)C(=O)C1CCc2c(c3cc(F)ccc3n2CC(=O)O)C1 (single isomer, unassigned; (+)) [(+)-[3-(Benzyl-isopropyl-carbamoyl)-6-fluoro-1,2,3,4-tetrahydro-carbazol-9-yl]-acetic acid] | 3 nM
CC(C)N(Cc1ccccc1)C(=O)C1CCc2c(c3cc(F)ccc3n2CC(=O)O)C1 (single isomer, unassigned; (-)) [(−)-[3-(Benzyl-isopropyl-carbamoyl)-6-fluoro-1,2,3,4-tetrahydro-carbazol-9-yl]-acetic acid] | 67 nM
CN(C(=O)C1(C)CCc2c(c3ccccc3n2CC(=O)O)C1)c1cccc(Cl)c1 (racemic) [Example B-10, (±)-{3-[(3-Chloro-phenyl)-methyl-carbamoyl]-3-methyl-1,2,3,4-tetrahydro-carbazol-9-yl}-acetic acid] | 1 nM

The remaining lines, values ahead:

IC50 | SMILES
2 nM | O=C(O)Cn1c2c(c3ccccc31)CC(C(=O)N1CCc3ccccc31)CC2 (racemic) [Example A-39, (±)-[3-(2,3-Dihydro-indole-1-carbonyl)-1,2,3,4-tetrahydro-carbazol-9-yl]-acetic acid]
19 nM | CC1(C(=O)NCc2cc(F)cc(F)c2)CCc2c(c3ccccc3n2CC(=O)O)C1 (racemic) [Example B-68, (±)-[3-(3,5-Difluoro-benzylcarbamoyl)-3-methyl-1,2,3,4-tetrahydro-carbazol-9-yl]-acetic acid]
3 nM | CN(C(=O)C1(C)CCc2c(c3ccccc3n2CC(=O)O)C1)c1ccccc1 (racemic) [Example B-01, (±)-[3-Methyl-3-(methyl-phenyl-carbamoyl)-1,2,3,4-tetrahydro-carbazol-9-yl]-acetic acid]
2 nM | CC1(C(=O)N(Cc2ccsc2)c2ccccc2)CCc2c(c3ccccc3n2CC(=O)O)C1 (racemic) [Example B-07, (±)-[3-Methyl-3-(phenyl-thiophen-3-ylmethyl-carbamoyl)-1,2,3,4-tetrahydro-carbazol-9-yl]-acetic acid]
22 nM | CCCC1(C(=O)Nc2cccc(F)c2)CCc2c(c3ccccc3n2CC(=O)O)C1 (racemic) [Example B-32, (±)-[3-(3-Fluoro-phenylcarbamoyl)-3-propyl-1,2,3,4-tetrahydro-carbazol-9-yl]-acetic acid]
3 nM | CC1(C(=O)N(Cc2ccccc2)c2ccccc2)CCc2c(c3ccccc3n2CC(=O)O)C1 (racemic) [Example B-04, (±)-[3-(Benzyl-phenyl-carbamoyl)-3-methyl-1,2,3,4-tetrahydro-carbazol-9-yl]-acetic acid]

Molecular target: T1, hCRTH2 receptor
Assay: Intracellular calcium mobilization assay (FLIPR), PGD2 challenge
Format: cell-based
Conditions: HEK-293 cells stably expressing hCRTH2; 10 nM prostaglandin D2 as agonist
Protocol: A functional assay with cells expressing the human CRTH2 receptor may be used to detect changes in the levels of intracellular calcium concentration following compound treatment. After addition of the compound the cells are challenged with PGD2. In a Fluorescent Imaging Plate Reader (FLIPR™, Molecular Devices, Sunnyvale, Calif.) fluorescence emission is recorded during both additions, emission peak values above base level after PGD2 addition were exported, normalized to low controls (no PGD2) and high controls (no active compound). The relative values of the remaining activity were used to determine IC50 values by curve fitting the data to a single site to a four-parameter logistic sigmoid dose response curve of the equation (A+((B−A)/(1+((C/x)^D)))).
Cells (HEK-293), stably expressing the hCRTH2 receptor under the control of the cytomegalovirus promotor from a single insertion of the expression vector pcDNA5 (Invitrogen), are grown to confluency in DMEM (low glucose, Gibco) medium supplemented with 10% fetal calf serum (both Bioconcept, Switzerland) under standard mammalian cell culture conditions (37° C. in a humidified atmosphere of 5% CO2). Cells are detached from culture dishes using a dissociation buffer (0.02% EDTA in PBS, Gibco) for 1 min, and collected by centrifugation at 200 g at rt for 5 min in assay buffer (equal parts of Hank's BSS (HBSS, Bioconcept) and DMEM (low glucose, without phenol red, Gibco)). After incubation for 45 min (37° C. and 5% CO2) in the presence of 1 μM Fluo-4 and 0.04% Pluronic F-127 (both Molecular Probes), 20 mM HEPES (Gibco) in assay buffer, the cells are washed with and resuspended in assay buffer, then seeded onto 384-well FLIPR assay plates (Greiner) at 50,000 cells in 66 μl per well, and sedimented by centrifugation.
Stock solutions of test compounds are made up at a concentration of 10 mM in DMSO, and serially diluted in assay buffer to concentrations required for inhibition dose response curves. Prostaglandin D2 (Biomol, Plymouth Meeting, Pa.) is used as an agonist.
A FLIPR384 instrument (Molecular Devices) is operated according to the manufacturer's standard instructions, adding 4 μl of test compound dissolved at 10 mM in DMSO and diluted prior to the experiment in assay buffer to obtain the desired final concentration. 10 μl of 80 nM prostaglandin D2 (Biomol, Plymouth Meeting, Pa.) in assay buffer, supplemented with 0.8% bovine serum albumin (fatty acid content<0.02%, Sigma), is then added to obtain a final concentration of 10 nM and 0.1%, respectively. Changes in fluorescence are monitored before and after the addition of test compounds at λex=488 nm and λem=540 nm. Emission peak values above base level after prostaglandin D2 addition are exported after base line subtraction. Values are normalized to high-level control (no test compound added) after subtraction of base line value (no prostaglandin D2 added). The program XL1fit 3.0 (IDBS) is used to fit the data to a single site dose response curve of the equation (A+((B−A)/(1+((C/x)^D)))) and to calculate the IC50 values.

SMILES | IC50
O=C(O)Cn1c2c(c3cc(F)ccc31)CC(C(=O)N1CCCCCCC1)CC2 (single isomer, unassigned; (+)) [(+)-[3-(Azocane-1-carbonyl)-6-fluoro-1,2,3,4-tetrahydro-carbazol-9-yl]-acetic acid] | 46 nM
CN(C(=O)C1CCc2c(c3cc([N+](=O)[O-])ccc3n2CC(=O)O)C1)c1ccccc1 (racemic) [(±)-[3-(Methyl-phenyl-carbamoyl)-6-nitro-1,2,3,4-tetrahydro-carbazol-9-yl]-acetic acid] | 11 nM
O=C(O)Cn1c2c(c3cc(F)ccc31)CC(C(=O)N1CCN(c3ccc(F)cc3)CC1)CC2 (single isomer, unassigned; (-)) [(−)-{6-Fluoro-3-[4-(4-fluoro-phenyl)-piperazine-1-carbonyl]-1,2,3,4-tetrahydro-carbazol-9-yl}-acetic acid] | 599 nM
CN(C(=O)C1(C)CCc2c(c3ccccc3n2CC(=O)O)C1)c1cccc(Cl)c1 (racemic) [Example B-10, (±)-{3-[(3-Chloro-phenyl)-methyl-carbamoyl]-3-methyl-1,2,3,4-tetrahydro-carbazol-9-yl}-acetic acid] | 20 nM
O=C(O)Cn1c2c(c3cc(F)ccc31)CC(C(=O)N1CCc3ccccc31)CC2 (single isomer, unassigned; (+)) [(+)-[3-(2,3-Dihydro-indole-1-carbonyl)-6-fluoro-1,2,3,4-tetrahydro-carbazol-9-yl]-acetic acid] | 28 nM

Second part, the compound after the results:

IC50 | SMILES
67 nM | CCC1(C(=O)N2CCc3ccccc32)CCc2c(c3ccccc3n2CC(=O)O)C1 (racemic) [Example B-22, (±)-[3-(2,3-Dihydro-indole-1-carbonyl)-3-ethyl-1,2,3,4-tetrahydro-carbazol-9-yl]-acetic acid]
36 nM | CC1(C(=O)N(CCC#N)Cc2ccccc2)CCc2c(c3ccccc3n2CC(=O)O)C1 (racemic) [Example B-56, (±)-{3-[Benzyl-(2-cyano-ethyl)-carbamoyl]-3-methyl-1,2,3,4-tetrahydro-carbazol-9-yl}-acetic acid]
13 nM | CN(C(=O)C1(C)CCc2c(c3ccccc3n2CC(=O)O)C1)c1ccccc1 (racemic) [Example B-01, (±)-[3-Methyl-3-(methyl-phenyl-carbamoyl)-1,2,3,4-tetrahydro-carbazol-9-yl]-acetic acid]
45 nM | CN(C(=O)C1CCc2c(c3ccccc3n2CC(=O)O)C1)c1ccccc1C(F)(F)F (racemic) [Example A-37, (±)-{3-[Methyl-(2-trifluoromethyl-phenyl)-carbamoyl]-1,2,3,4-tetrahydro-carbazol-9-yl}-acetic acid]
17 nM | CN(C(=O)C1CCc2c(c3ccccc3n2CC(=O)O)C1)C(c1ccccc1)c1ccccc1 (racemic) [Example A-42, (±)-[3-(Benzhydryl-methyl-carbamoyl)-1,2,3,4-tetrahydro-carbazol-9-yl]-acetic acid]
